Patent US20230157952A1, “METHOD FOR IMPROVING THE STABILITY OF A PHARMACEUTICAL COMPOSITION COMPRISING A HIGH PENETRATION DRUG, AND THE PHARMACEUTICAL COMPOSITION OBTAINED THEREFROM” (Techfields Inc., priority 2020, published 2023)

Assay: Effect of concentration on the stability of the solution (purity over time)
Conditions: for Purity (%) at Day 3 / Purity (%) at Day 7 / Purity (%) at hr 0 / Purity(%) at Day 14 / Purity(%) at Day 21 / Purity(%) at Day 28: 25° C.

With `CCN(CC)CCOC(=O)CCCc1ccc(N(CCS(C)(=O)=O)CCS(C)(=O)=O)cc1.Cl` the “Purity (%) at Day 3” value (0.01 wt % in water) was 83.4%, the “Purity (%) at Day 7” value (0.01 wt % in water) was 73.2% and the “Purity (%) at hr 0” value (0.01 wt % in water) was 97.6%. For the same compound, the “Purity(%) at Day 14” value (0.01 wt % in water) was 55.2%, the “Purity(%) at Day 21” value (0.01 wt % in water) was 43.1% and the “Purity(%) at Day 28” value (0.01 wt % in water) was 32.0%. The “Purity (%) at Day 3” value (0.1 wt % in water) was 93.7%, the “Purity (%) at Day 7” value (0.1 wt % in water) was 88.3% and the “Purity (%) at hr 0” value (0.1 wt % in water) was 97.7%. The “Purity(%) at Day 14” value (0.1 wt % in water) was 80.6%, the “Purity(%) at Day 21” value (0.1 wt % in water) was 71.5% and the “Purity(%) at Day 28” value (0.1 wt % in water) was 60.7%. For the same compound, the “Purity (%) at Day 3” value (1 wt % in water) was 95.1%, the “Purity (%) at Day 7” value (1 wt % in water) was 90.8% and the “Purity (%) at hr 0” value (1 wt % in water) was 98.0%. For the same compound, the “Purity(%) at Day 14” value (1 wt % in water) was 85.1%, the “Purity(%) at Day 21” value (1 wt % in water) was 80.3% and the “Purity(%) at Day 28” value (1 wt % in water) was 73.8%. For the same compound, the “Purity (%) at Day 3” value (3 wt % in water) was 96.0%, the “Purity (%) at Day 7” value (3 wt % in water) was 94.3% and the “Purity (%) at hr 0” value (3 wt % in water) was 98.1%. The “Purity(%) at Day 14” value (3 wt % in water) was 89.7%, the “Purity(%) at Day 21” value (3 wt % in water) was 84.8% and the “Purity(%) at Day 28” value (3 wt % in water) was 80.6%. The “Purity (%) at Day 3” value (5 wt % in water) was 97.8%, the “Purity (%) at Day 7” value (5 wt % in water) was 97.2% and the “Purity (%) at hr 0” value (5 wt % in water) was 98.2%. The “Purity(%) at Day 14” value (5 wt % in water) was 95.3%, the “Purity(%) at Day 21” value (5 wt % in water) was 93.0% and the “Purity(%) at Day 28” value (5 wt % in water) was 90.3%. The “Purity (%) at Day 3” value (7 wt % in water) was 98.3%, the “Purity (%) at Day 7” value (7 wt % in water) was 98.1% and the “Purity (%) at hr 0” value (7 wt % in water) was 98.4%. For the same compound, the “Purity(%) at Day 14” value (7 wt % in water) was 98.0%, the “Purity(%) at Day 21” value (7 wt % in water) was 97.5% and the “Purity(%) at Day 28” value (7 wt % in water) was 97.0%. The “Purity (%) at Day 3” value (8 wt % in water) was 98.2%, the “Purity (%) at Day 7” value (8 wt % in water) was 98.2% and the “Purity (%) at hr 0” value (8 wt % in water) was 98.3%. The “Purity(%) at Day 14” value (8 wt % in water) was 98.1%, the “Purity(%) at Day 21” value (8 wt % in water) was 97.6% and the “Purity(%) at Day 28” value (8 wt % in water) was 97.0%. For the same compound, the “Purity (%) at Day 3” value (10 wt % in water) was 98.3%, the “Purity (%) at Day 7” value (10 wt % in water) was 98.3% and the “Purity (%) at hr 0” value (10 wt % in water) was 98.4%. For the same compound, the “Purity(%) at Day 14” value (10 wt % in water) was 98.0%, the “Purity(%) at Day 21” value (10 wt % in water) was 97.5% and the “Purity(%) at Day 28” value (10 wt % in water) was 97.1%. The “Purity (%) at Day 3” value (15 wt % in water) was 98.4%, the “Purity (%) at Day 7” value (15 wt % in water) was 98.2% and the “Purity (%) at hr 0” value (15 wt % in water) was 98.4%. The “Purity(%) at Day 14” value (15 wt % in water) was 98.1%, the “Purity(%) at Day 21” value (15 wt % in water) was 97.7% and the “Purity(%) at Day 28” value (15 wt % in water) was 97.2%. The “Purity (%) at Day 3” value (20 wt % in water) was 98.4%, the “Purity (%) at Day 7” value (20 wt % in water) was 98.3% and the “Purity (%) at hr 0” value (20 wt % in water) was 98.4%. For the same compound, the “Purity(%) at Day 14” value (20 wt % in water) was 98.2%, the “Purity(%) at Day 21” value (20 wt % in water) was 97.6% and the “Purity(%) at Day 28” value (20 wt % in water) was 97.2%. For the same compound, the “Purity (%) at Day 3” value (30 wt % in water) was 98.4%, the “Purity (%) at Day 7” value (30 wt % in water) was 98.2% and the “Purity (%) at hr 0” value (30 wt % in water) was 98.5%. The “Purity(%) at Day 14” value (30 wt % in water) was 98.1%, the “Purity(%) at Day 21” value (30 wt % in water) was 97.8% and the “Purity(%) at Day 28” value (30 wt % in water) was 97.3%. The “Purity (%) at Day 3” value (50 wt % in water) was 98.3%, the “Purity (%) at Day 7” value (50 wt % in water) was 98.2% and the “Purity (%) at hr 0” value (50 wt % in water) was 98.4%. The “Purity(%) at Day 14” value (50 wt % in water) was 98.2%, the “Purity(%) at Day 21” value (50 wt % in water) was 97.7% and the “Purity(%) at Day 28” value (50 wt % in water) was 97.3%.

For `CCN(CC)CCOC(=O)CCCc1ccc(N(CCS(C)(=O)=O)CCS(C)(=O)=O)cc1.Cl` [2-(diethylamino)ethyl 4-[bis(2-methylsulfonylethyl)amino]benzenebutyrate.HCl], the “Stability when the concentration is 0.1% or lower” value (in water at 25° C.) was “not stable”.
